The source of these data is patent US12692221B2 (priority 2024, dated 2026).

Values after ≈ are worked out from the molar mass of the structure shown. “Also recorded” adds a separate entry of the source.

The target of series [1] is T1, 5-HT2A (Homo sapiens, UniProt P28223). The series is described as follows: Calcium flux agonist assay, 293T cells. It counts as cell-based. Set-up: expressed in transfected cells; host or cells: Human Embryonic Kidney (293T) cells, transient. Particulars: for Emax: HEK-293T, calcium flux, 5-HT2A, normalized to maximum 5-HT response. On the technique in general: Calcium assays in cells follow changes in intracellular calcium, usually with a dye or a luminescent sensor.
T1 sequence (P28223 whole entry, looked up): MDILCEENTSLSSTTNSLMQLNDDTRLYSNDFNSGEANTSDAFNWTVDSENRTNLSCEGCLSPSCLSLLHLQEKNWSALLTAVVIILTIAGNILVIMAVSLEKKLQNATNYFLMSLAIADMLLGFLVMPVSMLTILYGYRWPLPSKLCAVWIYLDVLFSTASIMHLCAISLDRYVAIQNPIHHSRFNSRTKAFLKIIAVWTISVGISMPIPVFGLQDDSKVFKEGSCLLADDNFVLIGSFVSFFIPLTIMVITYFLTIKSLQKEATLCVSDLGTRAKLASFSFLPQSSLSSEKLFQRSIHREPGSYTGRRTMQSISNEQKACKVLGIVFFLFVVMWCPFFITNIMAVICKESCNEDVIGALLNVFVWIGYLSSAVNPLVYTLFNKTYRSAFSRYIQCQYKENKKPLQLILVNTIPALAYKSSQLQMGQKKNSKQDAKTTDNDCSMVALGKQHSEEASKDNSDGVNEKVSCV

Series [2] deals with T2, 5-HT2B (Homo sapiens, UniProt P41595). The series is described as follows: Calcium flux agonist assay, 293T cells. Format: cell-based. Conditions: for Emax: HEK-293T, 5-HT2B, normalized to maximum 5-HT response; for Emax / 5-HT2B receptor activation: calcium flux; for 5-HT2B receptor activation: in words. Set-up: expressed in transfected cells; host or cells: Human Embryonic Kidney (293T) cells, transient.
T2 sequence (P41595 whole entry): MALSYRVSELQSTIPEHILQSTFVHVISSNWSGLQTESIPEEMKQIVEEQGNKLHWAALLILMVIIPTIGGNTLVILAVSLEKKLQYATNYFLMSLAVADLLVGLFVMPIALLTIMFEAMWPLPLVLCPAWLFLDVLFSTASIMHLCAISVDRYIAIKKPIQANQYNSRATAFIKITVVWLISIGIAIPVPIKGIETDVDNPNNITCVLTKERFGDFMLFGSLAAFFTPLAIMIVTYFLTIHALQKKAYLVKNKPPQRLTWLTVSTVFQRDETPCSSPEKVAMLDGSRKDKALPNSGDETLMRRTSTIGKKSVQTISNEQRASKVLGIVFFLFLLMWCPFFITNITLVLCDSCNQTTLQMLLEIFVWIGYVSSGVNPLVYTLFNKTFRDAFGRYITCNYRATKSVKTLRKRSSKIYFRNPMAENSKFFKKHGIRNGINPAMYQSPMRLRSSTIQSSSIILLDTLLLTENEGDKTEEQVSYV

Series [3] deals with T2, 5-HT2B. The series is described as follows: IP-One HTRF IP-1 accumulation functional assay, 5-HT2B/HEK293. Also on record: host or cells: HEK293. It counts as cell-based. Here is the method:
Methods (5-HT2B IP-One Functional Activity Assays): Intracellular accumulation of IP-1 was measured using an IP-One HTRF) assay kit (Cat. #62IPAPEJ, Cisbio) at WuXi AppTec Co. Ltd. (Hong Kong) Discovery Biology Unit according to their standard protocols. Briefly, 5-HT2B/HEK293 were plated in a 384-well plate and incubated at 37° C. and 5% CO2 overnight. The reference compounds and screening compounds were 3.16-fold serially diluted in 100% DMSO for 10 points using Bravo. 70 nL of compounds were added to the cell plate using Echo555. Incubated for 60 minutes at 37° C. Added 3 μL of IP-1 d2 Reagent working solution and 3 μL of IP-1 Tb Cryptate Antibody working solution to all wells. The plates were incubated for 1 hour at room temperature and read on for fluorescence at 620 nm and 665 nm on an EnVision Multimode Plate Reader (PerkinElmer). The ratio of the acceptor and donor emission signals (665/620) were calculated for each individual well and substituted into the standard curve to obtain the log concentration of IP level. After converting to the antilog base IP-1, the average background control signal was subtracted from each well and values were normalized to the maximal response of 5-HT at 3 μM (100%). % MAX was calculated by taking the average normalized maximal response at the highest concentration tested. Data were analyzed using the four-parameter nonlinear regression curve-fitting function in GraphPad Prism 5 (GraphPad Software, San Diego, CA) to generate potency (EC50) values. Parameter constraint “Top=100” was used in the analysis of 5-HT2B IP-1. Represented plots show normalized IP-1 values versus compound concentrations; the corresponding numerical data are parameter estimates for the concentration-response curve using the 4-parameter nonlinear regression curve-fitting function in GraphPad Prism 10. “Top=100” parameter constraint was not enabled for the represented plot analysis.
For orientation: TR-FRET usually uses a lanthanide donor and a delayed reading to cut background.

Series [4] has as its target T1, 5-HT2A. The series is described as follows: IP-One HTRF IP-1 accumulation functional assay, 5-HT2A-expressing HEK293. Set-up: host or cells: HEK293. It counts as cell-based. Here is the method: Methods (5-HT2A and 5-HT2C IP-One Functional Activity Assays): Intracellular accumulation of IP-1 was measured using an IP-One HTRF assay kit (Cat. #62IPAPEJ, Cisbio) at WuXi AppTec Co. Ltd. (Hong Kong) Discovery Biology Unit according to their standard protocols. Briefly, the reference compounds and screening compounds were 3.16-fold serially diluted in 100% DMSO for 10 points using Bravo. 70 nL of compounds were added to the assay plate using Echo555. Added 14 μL/7500 cells/well of 5-HT2A-expressing HEK293 or 5-HT2C-expressing HEK293 to the assay plate and incubate for 60 min at 37° C. Added 3 μL of IP-1 d2 Reagent working solution and 3 μL of IP-1 Tb Cryptate Antibody working solution to all wells. The plates were incubated for 1 hour at room temperature and read for fluorescence at 620 nm and 665 nm on an EnVision Multimode Plate Reader (PerkinElmer). The ratio of the acceptor and donor emission signals (665/620) were calculated for each individual well and substituted into the standard curve to obtain the log concentration of IP level. After converting to the antilog base IP-1, the average background control signal was subtracted from each well and values were normalized to the maximal response of 5-HT at 3 μM (100%). % MAX was calculated by taking the average normalized maximal response for each compound at the highest concentration tested. The data were analyzed using the four-parameter nonlinear regression curve-fitting function in GraphPad Prism 5 (GraphPad Software, San Diego, CA) to generate potency (EC50) values. The represented plots show normalized IP-1 values versus compound concentrations; the corresponding numerical data are parameter estimates for the concentration-response curve using the four-parameter nonlinear regression curve-fitting function in GraphPad Prism 10.

A short description of series [5]: Aqueous solubility by sequential dilution in water, microscopic inspection. Conditions: water, thermodynamic from solid.
A short description of series [6]: Photoabsorption 290-700 nm, molar extinction coefficient (photoliability). Format: physicochemical. Particulars: wavelength of maximal absorption between 290 nm and 700 nm.
Series [7] has as its system male C57BL/6J mice. The series is described as follows: Motor activity / distance traveled measured in parallel with HTR. It counts as in vivo, mouse. Particulars: i.p.; for motor activity, in words: magnetometer activity.
The target of a further series is T3, 5-HT2C (h) (Homo sapiens, UniProt P28335).
T3 construct: host or cells: HEK-293 cells
T3 sequence (P28335 33-458): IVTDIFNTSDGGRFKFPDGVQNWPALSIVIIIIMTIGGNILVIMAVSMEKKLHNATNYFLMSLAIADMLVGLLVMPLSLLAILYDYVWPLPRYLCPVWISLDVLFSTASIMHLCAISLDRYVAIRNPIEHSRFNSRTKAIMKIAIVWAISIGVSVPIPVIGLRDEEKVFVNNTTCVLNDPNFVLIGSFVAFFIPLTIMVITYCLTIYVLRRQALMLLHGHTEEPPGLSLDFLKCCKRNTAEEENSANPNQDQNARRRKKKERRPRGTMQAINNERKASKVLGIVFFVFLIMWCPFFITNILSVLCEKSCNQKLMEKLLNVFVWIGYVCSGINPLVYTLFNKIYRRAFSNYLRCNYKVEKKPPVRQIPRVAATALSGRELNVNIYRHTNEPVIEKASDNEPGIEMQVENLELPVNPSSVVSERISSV
The series is described as follows: Radioligand binding 5-HT2C (h) (agonist radioligand), [^125I](±)DOI, HEK-293 cells.

The target of another series is T4, 5-HT2A (h) (Homo sapiens, UniProt P28223).
T4 construct: host or cells: HEK-293 cells
T4 sequence (P28223 whole entry, looked up): as the sequence (P28223 whole entry, looked up) above
The series is described as follows: Radioligand binding 5-HT2A (h) (agonist radioligand), [^125I](±)DOI, HEK-293 cells. Conditions: 5-HT2A, Hill coefficient.

The target of another series is T5, 5-HT2B (h) (Homo sapiens, UniProt P41595).
T5 construct: host or cells: CHO cells
T5 sequence (P41595 whole entry): as the sequence (P41595 whole entry) above
The series is described as follows: Radioligand binding 5-HT2B (h) (agonist radioligand), [^125I](±)DOI, CHO cells.

Series [8] relates to male C57BL/6J mice. The series is described as follows: Mouse head-twitch response (HTR) assay, magnetometer. It counts as in vivo. Conditions: for HTR (head twitch response), in words: i.p., doses up to 30 mpk.

With `COc1cc(CCN)c(OC)cc1Br` [Compound 2C-B, reference compound], the EC50 (commonly the concentration that produces a half-maximal response) on 5-HT2A [1] came out at 0.62 nM; on 5-HT2B [2], 9.98 nM; on 5-HT2B [3], 232 nM; on 5-HT2A [4] it was 20.9 nM. Also, the Emax (commonly the greatest response seen or fitted, relative to the assay's reference) was 105% on 5-HT2A [1] and 92.7% on 5-HT2B [2]. On 5-HT2B [2], the 5-HT2B receptor activation result was “near maximal activation”.

Regarding `COc1cc(CC(C)C)c(CO)cc1CCN` [Compound 2CiBu-5HM, [5-(2-Aminoethyl)-2-isobutyl-4-methoxy-phenyl]methanol], the solubility (usually the dissolved amount per volume that the medium holds) in [5] is 44.4 mM (≈ 10500 µg/mL). The EC50 worked out at 1120 nM at 5-HT2B [3] and 466 nM on 5-HT2A [4]. Besides, in [6], the MEC is 340.7 L/mol/cm.

Regarding `COc1cc(C[C@@H](C)N)c(OC)cc1I` [R-DOI, (−)-R-2,5-dimethoxy-4-iodo-amphetamine, reference compound], the “motor activity, in words” value in the series on male C57BL/6J mice [7] is on record as “increase in motor activity”. Moreover, the Ki (as a rule, the equilibrium dissociation constant of an inhibitor or competing ligand from its target) at 5-HT2C (h) amounted to 0.4 nM; at 5-HT2B (h), 1.2 nM. In addition, the nH is 1.0 on 5-HT2C (h) (5-HT2C, Hill coefficient); 0.7 on 5-HT2A (h); 0.7 at 5-HT2B (h) (5-HT2B, Hill coefficient). On 5-HT2B (h), the IC50 (as a rule, the point on the concentration scale where inhibition reaches its midpoint) was determined as 2.3 nM. The “HTR (head twitch response), in words” value in the series on male C57BL/6J mice [8] is given as “induced HTR that gradually increased over time”.

Regarding `COc1cc(CC(C)C)c(OC)cc1CCN` [Compound 2C-iBu, reference compound], in the series with male C57BL/6J mice [7], the “motor activity ID50” value was determined as 2 mpk; the “motor activity, in words” value is “modest but statistically significant effect on motor suppression at the doses of 3 and 10 mpk”. For the same compound, at 5-HT2A [1], the EC50 was 21.9 nM and the Emax came out at 92.6%. In addition, in series [5], the concentration in solution (solubility) came to 31.2 mM (≈ 7400 µg/mL). For the same compound, at 5-HT2B [2], the EC50 is 22.3 nM, the Emax turned out to be 89.1% and the 5-HT2B receptor activation result is given as “near maximal activation”. Further, in the series on male C57BL/6J mice [8] (Mus musculus, ip, non-linear regression), the ED50 (usually the dose at which the effect has come halfway, by size or by number of responders) was found to be 0.42 mg/kg. Moreover, the “HTR (head twitch response), in words” value in the series with male C57BL/6J mice [8] is “produced clear HTR time-course and inverted U-shape dose-response patterns; also recorded: induced HTR activity”.
